Positions of bridges follow the written chain, without caps; N, C: chain ends. Non-standard residues stand in square brackets, D forms with d. Residues, ends and D or L forms follow the SMILES beside them.
Key:
[1] = Chemical stability assay in DMEM with 10% FBS; assay type: in vitro ADME; settings: bovine, 37° C., values represent 95% confidence intervals
Procedure: These assays were conducted by Pharmaron Beijing CO., Ltd. Cyclic peptides working solutions were prepared at 10 μM in DMEM with 10% FBS (Avantor, Cat #76294-180) or human plasma (Pooled, Male & Female, BioIVT, Cat #HMN666664). The assays were performed in duplicate. Vials were incubated at 37° C. at 60 rpm in a water bath and taken at designated time points including 0, 480, 1080 and 1440 min. For each time point, the initiation of the reaction was staggered so all the time points were terminated with cold acetonitrile containing internal standards (IS, 100 nM alprazolam, 200 nM labetalol, 200 nM Imipramine and 2 μM ketoplofen) at the same time. Samples were vortexed then centrifuged at 4° C. to remove proteins. The supernatants from centrifugation were diluted by ultra-pure H2O and used for LC-MS/MS analysis. All calculations were carried out using GraphPad Prism. Remaining percentages of parent compounds at each time point were estimated by determining the peak area ratios from extractedion chromatograms.

Gαs/Gβγ = molecular target: T1, Gαs/Gβγ (Homo sapiens, UniProt P63092); test: BRET2 based Gα Gβγ interaction assay in HEK293 cells (β2AR, isoproterenol); assay type: cell-based; settings: pretreated 25 μM, 16 hours, 10 nM isoproterenol
T1 construct: expressed in transfected cells; host or cells: HEK293 cells
Text: We next tested GD20-F10L in HEK 293 cells overexpressing both β2AR and Gαs/Gβγ. Rluc8 was inserted within a flexible loop region between the αB-αC helices of Gαs (FIG. 23J) and GFP2 was inserted at the N-terminus of Gγ2 to capture Gαβγ heterotrimer interaction. A decrease in the bioluminescence resonance energy transfer (BRET2) signal between labeled G protein subunits can detect Gαβγ dissociation (FIG. 21C) in live cells (Olsen et al., 2020). We examined Gαβγ trimer dissociation elicited by the GPCR agonist at various concentrations of cyclic peptides by monitoring the net BRET2 signal. In cells that were transiently transfected with a Gαs-coupled β2-adrenergic receptor (β2AR), GαsShort_Rluc8, […], and Gγ-GFP2, ISO application stimulated a basal net BRET response. […] This effect was GD20-F10L dose dependent (FIGS. 21D-21E). […] To assess the specificity of GD20-F10L at the G protein level, we tested it against the Gαi/Gβγ interaction. […]
8 hours after plating in 96-well assay plates, media was replaced with 100 μL of cyclic peptide dilutions in DMEM with 1% dialyzed FBS. […] Plates were then read in a TECAN Spark 20 M plate reader with 395 nm (RLuc8-coelenterazine 400a) and 510 nm (GFP2) emission filters, at integration times of 1 s per well. Plates were read serially six times, and measurements from the fourth read were used in all analyses. […]

GppNHp-bound Gαi1 = molecular target: T2, GppNHp-bound Gαi1 (Homo sapiens, UniProt P63096); test: Bio-layer interferometry (BLI) binding; settings: highest concentration tested
T2 construct: hexahistidine (N, cleaved yes); made in house; host or cells: Escherichia coli BL21(DE3)
Procedure: (§1) BLI experiments were performed using an OctetRED384 instrument from ForteBio. All experiments were performed at 25° C. using BLI buffer (10 mM HEPES pH 7.4, 150 mM NaCl, 1 mM MgCl2, 0.05% Tween-20, 0.1% DMSO, 0.2 mM GppNHp or GDP). Cyclic peptides were diluted to a series of concentrations in BLI buffer plus 10 μM Biotin. Assays were conducted in Greiner 384well, black, flat bottom polypropylene plates containing the protein solutions, BLI buffer plus 10 μM Biotin for dissociation, and serial dilutions of cyclic peptides to be tested.
(§2) Biotinylated proteins were immobilized on Streptavidin biosensors by dipping sensors into plate wells containing protein solutions at a concentration of 100-150 nM. Protein loading is around 2-3 nm. Sensors loaded with proteins were moved and dipped into wells with BLI buffer plus 10 μM Biotin to block unlabeled Streptavidin. Association-dissociation cycles of compounds were started by moving and dipping sensors to cyclic peptides dilutions and BLI buffer plus 10 μM Biotin wells alternatively. Association and dissociation times were carefully determined to ensure full association and dissociation.
(§3) Raw kinetic data collected were processed with the Data Analysis software provided by the manufacturer using single reference subtraction in which buffer-only reference was subtracted (For GN13 analysis). Because GD20 analogs have a low level of background binding, we used a double reference subtraction (buffer-only reference and non-protein-loading reference) method to calculate their kinetics values. The resulting data were analyzed based on a 1:1 binding model from which kon and koff values were obtained and then Kd values were calculated.

GDP-bound Gαi1 = molecular target: T3, GDP-bound Gαi1 (Homo sapiens, UniProt P63096); test: Bio-layer interferometry (BLI) binding; settings: highest concentration tested
T3 construct: hexahistidine (N, cleaved yes); made in house; host or cells: Escherichia coli BL21(DE3)
Procedure: as §1, §2, §3

T2 sequence (P63096 with tags, fused parts or gaps): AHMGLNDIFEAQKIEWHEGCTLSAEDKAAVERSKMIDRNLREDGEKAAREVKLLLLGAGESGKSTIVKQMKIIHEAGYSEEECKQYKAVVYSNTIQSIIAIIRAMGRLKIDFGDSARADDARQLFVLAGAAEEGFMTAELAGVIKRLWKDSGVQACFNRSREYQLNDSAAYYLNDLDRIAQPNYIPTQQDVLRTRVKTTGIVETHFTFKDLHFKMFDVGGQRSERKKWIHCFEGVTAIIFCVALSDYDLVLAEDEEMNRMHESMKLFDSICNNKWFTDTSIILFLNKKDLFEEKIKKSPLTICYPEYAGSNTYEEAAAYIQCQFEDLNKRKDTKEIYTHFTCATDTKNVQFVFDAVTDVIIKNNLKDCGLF
T3 sequence (P63096 with tags, fused parts or gaps): as above
T1 sequence (P63092 1-380 isoform P63092-2): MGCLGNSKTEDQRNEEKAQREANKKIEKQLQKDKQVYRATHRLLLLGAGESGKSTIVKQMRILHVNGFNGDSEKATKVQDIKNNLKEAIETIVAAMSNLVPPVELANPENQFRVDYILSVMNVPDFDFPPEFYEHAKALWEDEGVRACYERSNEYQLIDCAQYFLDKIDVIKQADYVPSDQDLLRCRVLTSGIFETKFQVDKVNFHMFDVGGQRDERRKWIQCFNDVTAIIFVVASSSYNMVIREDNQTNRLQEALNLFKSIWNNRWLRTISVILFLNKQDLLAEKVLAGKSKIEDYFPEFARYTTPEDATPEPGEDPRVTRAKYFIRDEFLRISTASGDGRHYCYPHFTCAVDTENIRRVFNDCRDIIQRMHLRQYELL

binding to GppNHp-bound Gαi1 (GppNHp-bound Gαi1) | binding to GDP-bound Gαi1 (GDP-bound Gαi1) | Structure (SMILES) | half-life at 10 μM [1] | net BRET2 signal between Gαs and Gγ after isoproterenol (Gαs/Gβγ)
 |  | CC[C@H](C)[C@@H]1NC(=O)[C@H](CC(C)C)NC(=O)[C@@H](Cc2ccc(O)cc2)NC(=O)CSC[C@@H](C(=O)NCC(N)=O)NC(=O)[C@@H]2CCCN2C(=O)[C@H](CC(C)C)NC(=O)[C@H](CC(N)=O)NC(=O)[C@H](CC(C)C)NC(=O)[C@H](C)NC(=O)[C@H](Cc2c[nH]c3ccccc23)NC(=O)[C@H](CCC(N)=O)NC(=O)[C@H](CCCNC(=N)N)NC(=O)[C@H](Cc2ccccc2)NC(=O)[C@H]([C@@H](C)O)NC1=O [GD20-F10L] ({CH2CO}-[dY]LITFRQWALNLPCG-NH2; thioether N-14) | 37.4 to 50.3 h | induced a greater net BRET2 signal
no detectable binding | no detectable binding | CC[C@H](C)[C@@H]1NC(=O)[C@H](C)NC(=O)[C@H](Cc2ccc(O)cc2)NC(=O)[C@H](C(C)C)NC(=O)[C@H](CO)NC(=O)[C@H](CCC(=O)O)NC(=O)[C@H](Cc2ccccc2)NC(=O)[C@@H](Cc2ccc(O)cc2)NC(=O)CSC[C@@H](C(=O)NCC(N)=O)NC(=O)[C@H](CC(C)C)NC(=O)[C@H]([C@@H](C)O)NC(=O)CNC(=O)[C@H](Cc2c[nH]c3ccccc23)NC1=O [GN13] ({CH2CO}-[dY]FESVYAIWGTLCG-NH2; thioether N-13) |  | 

— patent US20240336657A1, “G-ALPHA-S PEPTIDE INHIBITORS AND USES THEREOF” (The Regents of the University of California, priority 2021, published 2024)
